Measured values reported in ChEMBL document CHEMBL3120141, “Discovery of (1R,6S)-5-[4-(1-cyclobutyl-piperidin-4-yloxy)-phenyl]-3,4-diaza-bicyclo[4.1.0]hept-4-en-2-one (R,S-4a): histamine H(3) receptor inverse agonist demonstrating potent cognitive enhancing and wake promoting activity” (Bioorg Med Chem Lett, 2014).
Values after ≈ are worked out from the molar mass of the structure shown. One block for each compound: values may come before it. Active and inactive are the calls of the source. The rule behind the calls is not given here.

Legend:
[1] = molecular target: Histamine H1 receptor (Homo sapiens) (UniProt P35367); assay: Inhibition of human histamine H1 receptor at 10 uM
[2] = molecular target: Histamine H2 receptor (Homo sapiens) (UniProt P25021); assay: Inhibition of human histamine H2 receptor at 10 uM
[3] = molecular target: Sodium-dependent dopamine transporter (Homo sapiens) (UniProt Q01959); assay: Inhibition of dopamine transporter (unknown origin) at 10 uM
[4] = Half life in monkey liver microsomes; type: ADME, Macaca mulatta, Microsome; settings: rhesus monkey
[5] = Cmax in rat at 5 mg/kg, po; type: ADME, organism-based; parameters: dose 5 mg/kg, route oral; settings: in vivo
[6] = Half life in human liver microsomes; type: ADME
[7] = molecular target: Histamine H4 receptor (Homo sapiens) (UniProt Q9H3N8); assay: Inhibition of human histamine H4 receptor at 10 uM
[8] = Half life in rat liver microsomes; type: ADME
[9] = molecular target: Voltage-gated inwardly rectifying potassium channel KCNH2 (Homo sapiens, UniProt Q12809); assay: Inhibition of human ERG channel by patch clamp technique
Cytochrome P450 3A4 = Cytochrome P450 3A4 (Homo sapiens, UniProt P08684); assay: Inhibition of CYP3A4 (unknown origin); type: ADME
Rattus norvegicus [10] = assay: (§1) Oral bioavailability in rat at 5 mg/kg; type: ADME, organism-based; settings: in vivo
Cytochrome P450 2D6 = Cytochrome P450 2D6 (Homo sapiens, UniProt P10635); assay: Inhibition of CYP2D6 (unknown origin); type: ADME
Histamine H3 receptor [11] = molecular target: T1, Histamine H3 receptor (Homo sapiens, UniProt Q9Y5N1); assay: Inverse agonist activity at human histamine H3 receptor by [35S]GTPgammaS binding assay; type: functional
[12] = Terminal half life in rat at 1 mg/kg, iv; type: ADME, organism-based; parameters: dose 1 mg/kg, route intravenous; settings: in vivo, read-out: beta t1/2 (converted)
[13] = Half life in mouse liver microsomes; type: ADME, Microsome
Rattus norvegicus [14] = assay: (§2) AUC in rat at 5 mg/kg, po; type: ADME, organism-based, Plasma; parameters: dose 5 mg/kg, route oral; settings: in vivo
Histamine H3 receptor [15] = molecular target: T1, Histamine H3 receptor; assay: Displacement of [3H]NAMH from human histamine H3 receptor transfected in CHO cells; type: cell-based
[16] = Volume of distribution at steady state in rat at 1 mg/kg, iv; type: ADME, organism-based; parameters: dose 1 mg/kg, route intravenous; settings: in vivo, read-out: Vdss
[17] = Ratio of drug uptake in brain to plasma in rat at 10 mg/kg, ip after 6 hrs; type: ADME, organism-based; parameters: dose 10 mg/kg, route intraperitoneal; settings: read-out: BPR
[18] = Half life in dog liver microsomes; type: ADME, Canis lupus familiaris
Cytochrome P450 1A2 = molecular target: T2, Cytochrome P450 1A2 (Homo sapiens, UniProt P05177); assay: Inhibition of CYP1A2 (unknown origin); type: ADME
T2 sequence (P05177 whole entry): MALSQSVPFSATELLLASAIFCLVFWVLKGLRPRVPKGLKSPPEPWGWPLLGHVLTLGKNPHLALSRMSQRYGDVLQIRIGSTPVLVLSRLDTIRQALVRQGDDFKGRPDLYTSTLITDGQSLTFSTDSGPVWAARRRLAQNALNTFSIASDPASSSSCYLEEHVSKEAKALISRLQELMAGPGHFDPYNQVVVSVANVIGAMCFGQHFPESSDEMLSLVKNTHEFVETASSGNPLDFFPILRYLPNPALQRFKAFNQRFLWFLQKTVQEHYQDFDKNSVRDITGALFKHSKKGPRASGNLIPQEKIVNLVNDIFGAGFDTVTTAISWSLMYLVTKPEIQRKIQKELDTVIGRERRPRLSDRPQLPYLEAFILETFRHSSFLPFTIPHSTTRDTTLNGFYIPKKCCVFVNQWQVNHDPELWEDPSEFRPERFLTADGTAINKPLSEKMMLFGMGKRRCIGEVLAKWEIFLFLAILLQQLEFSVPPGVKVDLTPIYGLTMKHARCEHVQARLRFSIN

Histamine H3 receptor [19] = molecular target: Histamine H3 receptor (Rattus norvegicus, UniProt Q9QYN8); assay: Displacement of [3H]NAMH from rat histamine H3 receptor transfected in CHO cells; type: cell-based
Cytochrome P450 2C19 = Cytochrome P450 2C19 (Homo sapiens, UniProt P33261); assay: Inhibition of CYP2C19 (unknown origin); type: ADME
Cytochrome P450 2C9 = Cytochrome P450 2C9 (Homo sapiens, UniProt P11712); assay: Inhibition of CYP2C9 (unknown origin); type: ADME
Rattus norvegicus [20] = assay: Wake promoting activity in EEG/EMG rat model assessed as cumulative wake time at 1 mg/kg, ip after 4 hrs (reference value: 86 +/- 7 mins); type: functional; settings: route intraperitoneal
Rattus norvegicus [21] = assay: Toxicity in EEG/EMG rat model assessed as abnormal behavior at 1 to 30 mg/kg, ip; type: organism-based; parameters: dose 1-30 mg/kg, route intraperitoneal; settings: in vivo
[22] = Solubility of the compound in water at pH 7.4; type: physicochemical
Rattus norvegicus [23] = assay: Enhancement of short term memory in rat social recognition memory model assessed as decrease in investigation ratio at 0.03 to 0.3 mg/kg, po; type: functional, organism-based
[24] = Oral bioavailability in dog at 3 mg/kg; type: ADME, organism-based, Canis lupus familiaris; settings: in vivo
[25] = Terminal half life in dog at 1 mg/kg, iv; type: ADME, organism-based, Canis lupus familiaris; parameters: dose 1 mg/kg, route intravenous; settings: in vivo, read-out: beta t1/2 (converted)
[26] = Volume of distribution at steady state in monkey at 1 mg/kg, iv; type: ADME, organism-based, Macaca mulatta; parameters: dose 1 mg/kg, route intravenous; settings: rhesus monkey, in vivo, read-out: Vdss
Rattus norvegicus [27] = assay: Wake promoting activity in ip dosed EEG/EMG rat model assessed as cumulative wake time after 4 hrs; type: functional, organism-based
[28] = Cmax in dog at 3 mg/kg, po; type: ADME, organism-based, Canis lupus familiaris; parameters: dose 3 mg/kg, route oral; settings: in vivo
Rattus norvegicus [29] = assay: Toxicity in EEG/EMG rat model assessed as EEG activity at 1 to 30 mg/kg, ip; type: organism-based; parameters: dose 1-30 mg/kg, route intraperitoneal; settings: in vivo
[30] = Plasma protein binding in human; type: ADME, cell-free; settings: read-out: PPB (converted)
[31] = Plasma protein binding in dog; type: ADME, cell-free, Canis lupus familiaris; settings: read-out: PPB (converted)
[32] = AUC in monkey at 3 mg/kg, po; type: ADME, organism-based, Macaca mulatta; parameters: dose 3 mg/kg, route oral; settings: rhesus monkey, plasma
[33] = as §1; type: ADME, organism-based; settings: in vivo
Rattus norvegicus [34] = assay: Wake promoting activity in EEG/EMG rat model assessed as cumulative wake time at 3 mg/kg, ip after 4 hrs (reference value: 86 +/- 7 mins); type: functional; settings: route intraperitoneal
[35] = AUC in dog at 3 mg/kg, po; type: ADME, organism-based, Canis lupus familiaris; parameters: dose 3 mg/kg, route oral; settings: plasma
[36] = Oral bioavailability in monkey at 3 mg/kg; type: ADME, organism-based, Macaca mulatta; settings: rhesus monkey, in vivo
Rattus norvegicus [37] = assay: Wake promoting activity in EEG/EMG rat model assessed as cumulative wake time at 30 mg/kg, ip after 1.5 hrs relative to vehicle-treated control; type: functional; settings: route intraperitoneal
Rattus norvegicus [38] = assay: In vivo inhibition of histamine H3 receptor in ip dosed rat dipsogenia model assessed as inhibition of RAMH-induced dipsogenia; type: functional
[39] = Clearance in monkey at 1 mg/kg, iv; type: ADME, organism-based, Macaca mulatta; parameters: dose 1 mg/kg, route intravenous; settings: rhesus monkey, in vivo
[40] = Plasma protein binding in rat; type: ADME, cell-free; settings: read-out: PPB (converted)
[41] = Ratio of drug uptake in brain to plasma in dog at 5 mg/kg, po after 6 hrs; type: ADME, organism-based, Canis lupus familiaris; parameters: dose 5 mg/kg, route oral; settings: read-out: BPR
[42] = Clearance in rat at 1 mg/kg, iv; type: ADME, organism-based; parameters: dose 1 mg/kg, route intravenous; settings: in vivo
[43] = as §2; type: ADME, organism-based, Plasma; parameters: dose 5 mg/kg, route oral; settings: plasma
Rattus norvegicus [44] = assay: Toxicity in EEG/EMG rat model assessed as sleep rebound at 1 to 30 mg/kg, ip; type: organism-based; parameters: dose 1-30 mg/kg, route intraperitoneal; settings: in vivo
[45] = Clearance in dog at 1 mg/kg, iv; type: ADME, organism-based, Canis lupus familiaris; parameters: dose 1 mg/kg, route intravenous; settings: in vivo
[46] = Terminal half life in monkey at 1 mg/kg, iv; type: ADME, organism-based, Macaca mulatta; parameters: dose 1 mg/kg, route intravenous; settings: rhesus monkey, in vivo, read-out: beta t1/2 (converted)
Rattus norvegicus [47] = assay: Wake promoting activity in EEG/EMG rat model assessed as cumulative wake time at 30 mg/kg, ip after 7.5 to 18 hrs relative to vehicle-treated control; type: functional; settings: route intraperitoneal
Rattus norvegicus [48] = assay: Wake promoting activity in EEG/EMG rat model assessed as cumulative wake time at 10 mg/kg, ip after 1.5 hrs relative to vehicle-treated control; type: functional; settings: route intraperitoneal
[49] = Solubility of the compound in water at pH 2; type: physicochemical
Rattus norvegicus [50] = assay: Wake promoting activity in EEG/EMG rat model assessed as cumulative wake time at 30 mg/kg, ip after 4 hrs (reference value: 86 +/- 7 mins); type: functional; settings: route intraperitoneal
Rattus norvegicus [51] = assay: Wake promoting activity in EEG/EMG rat model assessed as cumulative wake time at 10 mg/kg, ip after 4 hrs (reference value: 86 +/- 7 mins); type: functional; settings: route intraperitoneal
[52] = Cmax in monkey at 3 mg/kg, po; type: ADME, organism-based, Macaca mulatta; parameters: dose 3 mg/kg, route oral; settings: rhesus monkey, in vivo
[53] = Volume of distribution at steady state in dog at 1 mg/kg, iv; type: ADME, organism-based, Canis lupus familiaris; parameters: dose 1 mg/kg, route intravenous; settings: in vivo, read-out: Vdss
[54] = Apparent permeability across human Caco2 cells; type: ADME, cell-based; settings: Caco-2

Sequence of Histamine H3 receptor (Rattus norvegicus, UniProt Q9QYN8) (Q9QYN8 whole entry): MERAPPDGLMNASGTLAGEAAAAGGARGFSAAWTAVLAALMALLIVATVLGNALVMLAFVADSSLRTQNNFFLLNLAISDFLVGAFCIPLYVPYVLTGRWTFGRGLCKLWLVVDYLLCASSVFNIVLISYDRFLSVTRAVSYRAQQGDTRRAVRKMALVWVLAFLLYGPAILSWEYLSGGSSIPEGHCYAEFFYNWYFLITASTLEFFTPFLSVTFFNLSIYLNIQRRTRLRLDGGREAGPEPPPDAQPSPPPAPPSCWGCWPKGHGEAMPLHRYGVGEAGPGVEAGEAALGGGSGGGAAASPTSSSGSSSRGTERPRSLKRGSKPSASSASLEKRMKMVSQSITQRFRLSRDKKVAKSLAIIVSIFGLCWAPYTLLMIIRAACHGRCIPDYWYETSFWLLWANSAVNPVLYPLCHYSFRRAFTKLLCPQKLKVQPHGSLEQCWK
T1 sequence (Q9Y5N1 whole entry): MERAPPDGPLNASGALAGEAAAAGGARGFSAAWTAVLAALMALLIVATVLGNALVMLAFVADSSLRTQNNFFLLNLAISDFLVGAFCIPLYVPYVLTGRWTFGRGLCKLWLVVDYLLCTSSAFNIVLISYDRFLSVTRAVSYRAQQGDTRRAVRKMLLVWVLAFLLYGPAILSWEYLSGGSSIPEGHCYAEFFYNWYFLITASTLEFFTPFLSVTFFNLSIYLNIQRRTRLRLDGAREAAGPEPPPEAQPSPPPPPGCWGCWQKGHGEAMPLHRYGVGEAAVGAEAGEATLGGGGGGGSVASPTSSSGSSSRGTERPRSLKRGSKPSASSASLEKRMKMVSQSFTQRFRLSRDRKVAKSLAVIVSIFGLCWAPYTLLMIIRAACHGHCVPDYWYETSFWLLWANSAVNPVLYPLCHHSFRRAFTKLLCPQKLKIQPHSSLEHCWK
Sequence of Histamine H1 receptor (Homo sapiens) (P35367 whole entry): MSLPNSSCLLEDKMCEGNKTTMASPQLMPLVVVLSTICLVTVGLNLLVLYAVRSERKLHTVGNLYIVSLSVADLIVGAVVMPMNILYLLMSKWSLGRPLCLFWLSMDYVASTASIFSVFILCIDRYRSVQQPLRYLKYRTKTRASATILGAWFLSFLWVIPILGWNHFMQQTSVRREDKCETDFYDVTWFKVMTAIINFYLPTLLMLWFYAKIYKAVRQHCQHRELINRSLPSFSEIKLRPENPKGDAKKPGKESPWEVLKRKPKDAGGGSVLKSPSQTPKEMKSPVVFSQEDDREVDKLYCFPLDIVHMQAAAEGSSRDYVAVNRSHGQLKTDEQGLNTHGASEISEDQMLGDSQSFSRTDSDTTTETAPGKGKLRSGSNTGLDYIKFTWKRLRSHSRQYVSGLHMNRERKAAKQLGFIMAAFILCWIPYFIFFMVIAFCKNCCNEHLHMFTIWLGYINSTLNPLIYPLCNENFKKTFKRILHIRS
Sequence of Cytochrome P450 2C19 (P33261 whole entry): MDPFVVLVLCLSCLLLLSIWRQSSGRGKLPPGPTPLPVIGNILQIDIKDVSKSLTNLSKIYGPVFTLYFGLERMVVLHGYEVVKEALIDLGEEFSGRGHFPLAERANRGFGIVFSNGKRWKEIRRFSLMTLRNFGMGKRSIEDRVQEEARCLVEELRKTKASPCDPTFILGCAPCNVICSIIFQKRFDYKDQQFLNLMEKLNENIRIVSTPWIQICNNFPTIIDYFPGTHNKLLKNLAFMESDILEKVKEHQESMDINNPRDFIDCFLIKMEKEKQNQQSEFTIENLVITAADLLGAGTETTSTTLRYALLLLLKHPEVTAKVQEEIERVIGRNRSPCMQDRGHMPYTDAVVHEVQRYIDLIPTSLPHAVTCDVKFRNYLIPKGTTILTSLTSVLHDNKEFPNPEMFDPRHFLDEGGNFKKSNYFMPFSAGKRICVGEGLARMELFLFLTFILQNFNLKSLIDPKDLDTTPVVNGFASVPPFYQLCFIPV
Sequence of Histamine H2 receptor (Homo sapiens) (P25021 whole entry): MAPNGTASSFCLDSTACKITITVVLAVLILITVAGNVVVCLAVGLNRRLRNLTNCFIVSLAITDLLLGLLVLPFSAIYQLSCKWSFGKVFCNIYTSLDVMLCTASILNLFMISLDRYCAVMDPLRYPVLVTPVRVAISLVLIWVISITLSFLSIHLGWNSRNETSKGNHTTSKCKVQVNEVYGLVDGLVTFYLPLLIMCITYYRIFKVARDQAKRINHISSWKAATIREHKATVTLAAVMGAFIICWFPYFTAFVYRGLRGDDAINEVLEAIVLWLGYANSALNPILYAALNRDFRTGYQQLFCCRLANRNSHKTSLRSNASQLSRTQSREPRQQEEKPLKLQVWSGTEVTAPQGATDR
Sequence of Cytochrome P450 3A4 (P08684 whole entry): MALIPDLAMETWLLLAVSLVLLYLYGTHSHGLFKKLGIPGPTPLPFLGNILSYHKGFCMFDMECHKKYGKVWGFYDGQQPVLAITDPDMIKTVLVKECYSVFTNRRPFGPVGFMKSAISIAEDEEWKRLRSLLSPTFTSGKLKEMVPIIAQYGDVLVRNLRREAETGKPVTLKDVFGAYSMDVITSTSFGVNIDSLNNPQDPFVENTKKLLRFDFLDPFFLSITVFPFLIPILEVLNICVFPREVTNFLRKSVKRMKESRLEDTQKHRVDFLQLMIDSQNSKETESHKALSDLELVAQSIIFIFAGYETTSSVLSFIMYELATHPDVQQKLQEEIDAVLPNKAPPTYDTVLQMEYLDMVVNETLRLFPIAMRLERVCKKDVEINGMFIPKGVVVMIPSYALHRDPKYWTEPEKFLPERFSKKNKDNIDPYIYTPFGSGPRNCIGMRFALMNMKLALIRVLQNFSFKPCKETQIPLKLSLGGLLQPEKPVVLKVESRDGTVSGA
Sequence of Cytochrome P450 2D6 (P10635 whole entry): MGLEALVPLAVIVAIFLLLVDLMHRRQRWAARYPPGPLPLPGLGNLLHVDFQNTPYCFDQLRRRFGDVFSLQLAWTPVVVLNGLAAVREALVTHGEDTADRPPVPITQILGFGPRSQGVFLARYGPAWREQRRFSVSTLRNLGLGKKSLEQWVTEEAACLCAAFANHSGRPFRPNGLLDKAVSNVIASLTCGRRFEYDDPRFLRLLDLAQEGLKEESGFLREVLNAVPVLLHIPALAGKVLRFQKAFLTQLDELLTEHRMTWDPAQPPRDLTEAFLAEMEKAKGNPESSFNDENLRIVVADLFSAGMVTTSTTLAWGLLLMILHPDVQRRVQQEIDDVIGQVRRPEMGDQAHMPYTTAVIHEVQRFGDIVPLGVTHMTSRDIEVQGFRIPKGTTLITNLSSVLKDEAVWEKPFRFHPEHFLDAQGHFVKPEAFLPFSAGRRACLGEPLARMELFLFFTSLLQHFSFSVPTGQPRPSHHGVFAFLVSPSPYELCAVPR
Sequence of Voltage-gated inwardly rectifying potassium channel KCNH2 (Q12809 whole entry): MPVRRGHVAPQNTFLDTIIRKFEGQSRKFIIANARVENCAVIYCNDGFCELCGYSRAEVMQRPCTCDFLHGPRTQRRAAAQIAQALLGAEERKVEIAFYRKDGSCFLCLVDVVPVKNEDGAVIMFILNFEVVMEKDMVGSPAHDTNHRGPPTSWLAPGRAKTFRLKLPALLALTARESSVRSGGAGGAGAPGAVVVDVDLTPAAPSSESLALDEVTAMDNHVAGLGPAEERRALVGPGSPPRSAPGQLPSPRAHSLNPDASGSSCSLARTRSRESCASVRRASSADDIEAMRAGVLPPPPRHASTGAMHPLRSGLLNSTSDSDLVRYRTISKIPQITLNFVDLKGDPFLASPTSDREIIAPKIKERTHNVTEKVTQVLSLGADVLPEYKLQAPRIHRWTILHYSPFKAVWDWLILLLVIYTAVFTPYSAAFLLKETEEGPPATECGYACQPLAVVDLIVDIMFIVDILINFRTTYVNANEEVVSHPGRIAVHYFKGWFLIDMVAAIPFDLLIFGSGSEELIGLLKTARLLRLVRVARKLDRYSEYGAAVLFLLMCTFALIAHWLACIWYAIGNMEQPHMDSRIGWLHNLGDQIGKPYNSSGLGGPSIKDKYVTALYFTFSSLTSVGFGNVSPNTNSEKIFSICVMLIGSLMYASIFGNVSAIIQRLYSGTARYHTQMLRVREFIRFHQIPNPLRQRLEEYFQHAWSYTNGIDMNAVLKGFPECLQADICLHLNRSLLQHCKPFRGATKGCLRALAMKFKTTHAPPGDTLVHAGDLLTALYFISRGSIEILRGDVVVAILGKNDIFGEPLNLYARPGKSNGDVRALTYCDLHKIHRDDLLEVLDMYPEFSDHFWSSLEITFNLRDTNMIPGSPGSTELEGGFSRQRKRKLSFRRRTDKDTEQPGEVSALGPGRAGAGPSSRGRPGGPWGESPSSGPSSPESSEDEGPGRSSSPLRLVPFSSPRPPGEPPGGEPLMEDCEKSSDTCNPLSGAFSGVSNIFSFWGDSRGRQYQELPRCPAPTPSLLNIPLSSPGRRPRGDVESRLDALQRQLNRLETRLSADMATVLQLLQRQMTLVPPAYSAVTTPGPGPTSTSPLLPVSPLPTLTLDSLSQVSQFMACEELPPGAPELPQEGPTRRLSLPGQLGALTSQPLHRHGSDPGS
Sequence of Cytochrome P450 2C9 (P11712 whole entry): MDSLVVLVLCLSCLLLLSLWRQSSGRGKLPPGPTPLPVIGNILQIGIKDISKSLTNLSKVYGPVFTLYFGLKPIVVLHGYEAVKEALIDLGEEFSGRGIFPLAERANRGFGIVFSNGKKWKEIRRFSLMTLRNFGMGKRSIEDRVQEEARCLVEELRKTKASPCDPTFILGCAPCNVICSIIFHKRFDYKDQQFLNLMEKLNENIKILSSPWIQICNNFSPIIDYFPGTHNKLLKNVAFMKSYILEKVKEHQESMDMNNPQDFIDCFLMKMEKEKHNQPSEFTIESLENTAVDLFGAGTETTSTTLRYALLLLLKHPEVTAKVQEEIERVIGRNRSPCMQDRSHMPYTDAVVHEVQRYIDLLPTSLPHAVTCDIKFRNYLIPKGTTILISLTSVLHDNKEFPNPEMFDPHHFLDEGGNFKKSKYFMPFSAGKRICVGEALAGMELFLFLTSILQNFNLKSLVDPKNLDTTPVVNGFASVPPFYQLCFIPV

inhibition [1]: < 10%
inhibition [2]: < 10%
inhibition [3]: 63%
half-life [4]: > 40 min
Cmax [5]: 649 ng/mL
half-life [6]: > 40 min
inhibition [7]: < 10%
half-life [8]: > 40 min
IC50 (Cytochrome P450 3A4): > 30000 nM
F (Rattus norvegicus [10]): 66%
IC50 (Cytochrome P450 2D6): > 30000 nM
EC50 (Histamine H3 receptor [11]): 0.5 nM
half-life [12]: 96 min
half-life [13]: > 40 min
AUC (Rattus norvegicus [14]): 5144 ng·h/mL
Ki (Histamine H3 receptor [15]): 6.8 nM
Vd [16]: 3 L/kg
Kp at 6 h [17]: 5
half-life [18]: > 40 min
IC50 (Cytochrome P450 1A2): > 30000 nM
Ki (Histamine H3 receptor [19]): 12 nM
IC50 (Cytochrome P450 2C19): > 30000 nM
IC50 (Cytochrome P450 2C9): > 30000 nM
SMILES: O=C1NN=C(c2ccc(OC3CCN(C4CCC4)CC3)cc2)[C@@H]2C[C@H]12
IC50 [9]: 6000 nM

Ki (Histamine H3 receptor [15]): 4.7 nM
Ki (Histamine H3 receptor [19]): 8.4 nM
SMILES: O=C1NN=C(c2ccc(OC3CCN(C4CCC4)CC3)cc2)C2CC12 (racemic)

solubility [22]: 800 µg/mL (≈ 2360 µM)
inhibition [1]: < 10%
inhibition [2]: < 10%
half-life [4]: > 40 min
bioavailability [24]: 94%
half-life [25]: 180 min
Cmax [5]: 888 ng/mL
half-life [6]: > 40 min
Vd [26]: 6 L/kg
Cmax [28]: 502 ng/mL
inhibition [7]: < 10%
half-life [8]: > 40 min
IC50 (Cytochrome P450 3A4): > 30000 nM
fraction unbound [30]: 0.23
fraction unbound [31]: 0.23
AUC [32]: 7190 ng·h/mL
bioavailability [33]: 92%
IC50 (Cytochrome P450 2D6): > 30000 nM
EC50 (Histamine H3 receptor [11]): 0.4 nM
AUC [35]: 2960 ng·h/mL
bioavailability [36]: 114%
half-life [12]: 156 min
clearance [39]: 8 mL/min/kg
fraction unbound [40]: 0.23
half-life [13]: > 40 min
Kp at 6 h [41]: 5.1
clearance [42]: 17 mL/min/kg
AUC [43]: 8320 ng·h/mL
Ki (Histamine H3 receptor [15]): 3.8 nM
clearance [45]: 16 mL/min/kg
Vd [16]: 3.7 L/kg
half-life [46]: 516 min
Kp at 6 h [17]: 3.6
half-life [18]: > 40 min
IC50 (Cytochrome P450 1A2): > 30000 nM
Ki (Histamine H3 receptor [19]): 7.3 nM
solubility [49]: > 1000 µg/mL
IC50 (Cytochrome P450 2C19): > 30000 nM
Cmax [52]: 645 ng/mL
Vd [53]: 4.1 L/kg
Papp [54]: 16.4 ×10⁻⁶ cm/s
IC50 (Cytochrome P450 2C9): > 30000 nM
SMILES: O=C1NN=C(c2ccc(OC3CCN(C4CCC4)CC3)cc2)[C@H]2C[C@@H]12
Time (Rattus norvegicus [20]): 121 min
Activity (Rattus norvegicus [21]): Non-toxic
Activity (Rattus norvegicus [23]): Active
Activity (Rattus norvegicus [27]): Dose-dependent effect
Activity (Rattus norvegicus [29]): Non-toxic
IC50 [9]: 14000 nM
Time (Rattus norvegicus [34]): 129 min
Activity (Rattus norvegicus [37]): 90%
ED50 (Rattus norvegicus [38]): 0.14 mg/kg
inhibition (Rattus norvegicus [38]): Dose-dependent effect
Activity (Rattus norvegicus [44]): Non-toxic
Time (Rattus norvegicus [47]): 174 min
Activity (Rattus norvegicus [48]): >90%
Time (Rattus norvegicus [50]): 217 min
Time (Rattus norvegicus [51]): 189 min
